Measurements reported in ChEMBL document CHEMBL3882725, “Indazole derivatives as JNK inhibitors and compositions and methods related thereto” (2002).

Molecular target: Mitogen-activated protein kinase 9 (Homo sapiens, UniProt P45984)
Assay: Inhibition of His6-tagged JNK2 (unknown origin) assessed as reduction in c-Jun phosphorylation using GST-c-Jun (1 to 79 residues) and [gamma32P]ATP incubated for 1 hr by scintillation counting assay

Chain of Mitogen-activated protein kinase 9 (P45984 whole entry, the tested form may be a part): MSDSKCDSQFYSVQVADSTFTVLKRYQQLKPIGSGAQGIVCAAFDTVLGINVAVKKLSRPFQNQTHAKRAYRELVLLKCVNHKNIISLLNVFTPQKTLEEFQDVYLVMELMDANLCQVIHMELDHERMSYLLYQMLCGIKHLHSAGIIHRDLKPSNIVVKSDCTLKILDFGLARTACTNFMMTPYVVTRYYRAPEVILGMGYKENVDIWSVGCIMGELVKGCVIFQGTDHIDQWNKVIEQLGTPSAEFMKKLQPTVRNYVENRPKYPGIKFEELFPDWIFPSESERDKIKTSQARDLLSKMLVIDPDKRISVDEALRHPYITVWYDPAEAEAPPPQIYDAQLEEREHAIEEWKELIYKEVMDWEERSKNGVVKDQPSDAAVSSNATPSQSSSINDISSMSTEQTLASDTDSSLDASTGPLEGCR

Row | IC50 | SMILES
1 | 1 to 10 µM | c1cc2[nH]nc(-c3ccc4c(c3)OCCO4)c2cc1-c1n[nH]c(CN2CCCC2)n1
2 | 0.5 to 10 µM | O=C(Nc1ccncc1)c1cccc(-c2n[nH]c3ccc(-c4nc[nH]n4)cc23)c1
3 | 0.5 to 10 µM | CN(C)Cc1nc(-c2ccc3[nH]nc(-c4cccc(C(=O)NC(C)(C)C)c4)c3c2)n[nH]1
4 | 0.5 to 10 µM | O=C(NCCc1ccccc1)c1cccc(-c2n[nH]c3ccc(-c4nc[nH]n4)cc23)c1
5 | 1 to 10 µM | c1cncc(COc2cccc(-c3n[nH]c4ccc(-c5nc[nH]n5)cc34)c2)c1
6 | 0.5 to 10 µM | O=C(NC1CCN(Cc2ccccc2)CC1)c1cccc(-c2n[nH]c3ccc(-c4nc[nH]n4)cc23)c1
7 | 0.5 to 10 µM | CN(C)Cc1nc(-c2ccc3[nH]nc(-c4cccc(C(=O)N[C@@H]5CCc6ccccc65)c4)c3c2)n[nH]1
8 | 0.5 to 10 µM | O=C(NCCN1CCOCC1)c1cccc(-c2n[nH]c3ccc(-c4nc[nH]n4)cc23)c1
9 | 1 to 10 µM | NC(=O)c1ccc2[nH]nc(-c3cccc(NC(=O)c4cccc(O)c4)c3)c2c1
10 | 1 to 10 µM | NC(=O)c1ccc2[nH]nc(-c3ccc4c(c3)OCCO4)c2c1
11 | 1 to 10 µM | COc1ccc2cc(-c3n[nH]c4ccc(-c5n[nH]c(CN(C)C)n5)cc34)ccc2c1
12 | 1 to 10 µM | NC(=O)c1ccc2[nH]nc(-c3cccc(OCCN4CCCCC4)c3)c2c1
13 | 0.5 to 10 µM | O=C(Nc1cccc2c1CCCC2)c1cccc(-c2n[nH]c3ccc(-c4nc[nH]n4)cc23)c1
14 | 1 to 10 µM | O=C(O)c1cccc(-c2n[nH]c3ccc(-c4nc[nH]n4)cc23)c1
15 | 1 to 10 µM | COc1ccc2cc(-c3n[nH]c4ccc(-c5nc[nH]n5)cc34)ccc2c1
16 | 1 to 10 µM | c1ccc2ncc(-c3n[nH]c4ccc(-c5nc[nH]n5)cc34)cc2c1
17 | 0.5 to 10 µM | O=C(Nc1ccccc1)c1cccc(-c2n[nH]c3ccc(-c4n[nH]c(CN5CCCC5)n4)cc23)c1
18 | 1 to 10 µM | c1nc(-c2ccc3[nH]nc(-c4ccc5c(c4)OCCO5)c3c2)n[nH]1
19 | 0.5 to 10 µM | COc1ccc(C(=O)Nc2cccc(-c3n[nH]c4ccc(-c5nc[nH]n5)cc34)c2)cc1
20 | 0.5 to 10 µM | O=C(NCCC1CCN(Cc2ccccc2)CC1)c1cccc(-c2n[nH]c3ccc(-c4nc[nH]n4)cc23)c1
21 | 1 to 10 µM | Cc1ccc(C(=O)Nc2cccc(-c3n[nH]c4ccc(-c5nc[nH]n5)cc34)c2)cc1
22 | 1 to 10 µM | CC(C(=O)Nc1cccc(-c2n[nH]c3ccc(C(N)=O)cc23)c1)c1ccccc1 (stereo not given)
23 | 1 to 10 µM | NC(=O)c1ccc2[nH]nc(-c3cccc(NC(=O)Cc4ccc(C(F)(F)F)cc4)c3)c2c1
24 | 0.5 to 10 µM | CN(C)Cc1n[nH]c(-c2ccc3[nH]nc(-c4cccc(C(=O)NC5CC5)c4)c3c2)n1
25 | 0.5 to 10 µM | O=C(NC1CCC1)c1cccc(-c2n[nH]c3ccc(-c4nc[nH]n4)cc23)c1
26 | 1 to 10 µM | CN(C)c1ccc(CC(=O)Nc2cccc(-c3n[nH]c4ccc(C(N)=O)cc34)c2)cc1
27 | 0.5 to 10 µM | CN(C)Cc1n[nH]c(-c2ccc3[nH]nc(-c4cccc(C(=O)NC5CCC5)c4)c3c2)n1

Row | IC50 | SMILES
28 | 0.5 to 10 µM | O=C(Nc1cccc(-c2n[nH]c3ccc(-c4nc[nH]n4)cc23)c1)c1ccccc1
29 | 1 to 10 µM | O=C(Nc1ccc(-c2n[nH]c3ccc(-c4nc[nH]n4)cc23)cc1)c1cccnc1
30 | 1 to 10 µM | CN(C)CC(=O)Nc1ccc(-c2n[nH]c3ccc(-c4nc[nH]n4)cc23)cc1
31 | 1 to 10 µM | O=C(Nc1cccc(-c2n[nH]c3ccc(-c4nc[nH]n4)cc23)c1)c1ccc(Cl)cc1Cl
32 | 1 to 10 µM | CN1CCN(CC(=O)Nc2cccc(-c3n[nH]c4ccc(-c5nc[nH]n5)cc34)c2)CC1
33 | 1 to 10 µM | NC(=O)c1ccc2[nH]nc(-c3cccc(NC(=O)CCc4ccc(F)cc4)c3)c2c1
34 | 1 to 10 µM | NC(=O)c1ccc2[nH]nc(-c3cccc(NC(=O)Cc4ccc(Cl)cc4Cl)c3)c2c1
35 | 0.5 to 10 µM | CN(C)Cc1nc(-c2ccc3[nH]nc(-c4cccc(C(=O)NCc5ccc(F)cc5)c4)c3c2)n[nH]1
36 | 0.5 to 10 µM | O=c1[nH]c(-c2ccc3[nH]nc(-c4ccc(F)cc4)c3c2)no1
37 | 1 to 10 µM | COCC(=O)Nc1ccc(-c2n[nH]c3ccc(-c4nc[nH]n4)cc23)cc1
38 | 0.5 to 10 µM | COc1ccc(CC(=O)Nc2cccc(-c3n[nH]c4ccc(C(N)=O)cc34)c2)cc1
39 | 0.5 to 10 µM | O=C(N[C@H]1C[C@@H]1c1ccccc1)c1cccc(-c2n[nH]c3ccc(-c4nc[nH]n4)cc23)c1
40 | 0.5 to 10 µM | NC(=O)c1ccc2[nH]nc(-c3cccc(NC(=O)Cc4ccc(F)cc4)c3)c2c1
41 | 0.5 to 10 µM | O=C(NC1CCCC1)c1cccc(-c2n[nH]c3ccc(-c4nc[nH]n4)cc23)c1
42 | 1 to 10 µM | NC(=O)c1ccc2[nH]nc(-c3cccc(NC(=O)C4CC4)c3)c2c1
43 | 0.5 to 10 µM | O=C(Nc1ccc(-c2n[nH]c3ccc(-c4nn[nH]n4)cc23)cc1)c1cccnc1
44 | 0.5 to 10 µM | Fc1ccc(-c2n[nH]c3ccc(-c4n[nH]c(CN5CCCC5)n4)cc23)cc1
45 | 0.5 to 10 µM | NC(=O)c1ccc2[nH]nc(-c3cccc(NC(=O)Cc4ccncc4)c3)c2c1
46 | 1 to 10 µM | COCCOc1cccc(-c2n[nH]c3ccc(-c4nc[nH]n4)cc23)c1
47 | 1 to 10 µM | NC(=O)c1ccc2[nH]nc(-c3cccc(NC(=O)Cc4ccc(F)c(F)c4)c3)c2c1
48 | 1 to 10 µM | NC(=O)c1ccc2[nH]nc(-c3cccc(NC(=O)Cc4ccccn4)c3)c2c1
49 | 0.5 to 10 µM | O=C(Nc1ccccc1)c1cccc(-c2n[nH]c3ccc(-c4nc[nH]n4)cc23)c1
50 | 0.5 to 10 µM | NC(=O)c1ccc2[nH]nc(-c3cccc(NC(=O)Cc4ccccc4F)c3)c2c1
51 | 0.5 to 10 µM | COc1ccc2cc(-c3n[nH]c4ccc(-c5n[nH]c(CN6CCCC6)n5)cc34)ccc2c1
52 | 0.5 to 10 µM | O=C(Nc1ccc(F)cc1)c1cccc(-c2n[nH]c3ccc(-c4nc[nH]n4)cc23)c1
53 | 0.5 to 10 µM | O=C(CN1CCOCC1)Nc1cccc(-c2n[nH]c3ccc(-c4nc[nH]n4)cc23)c1
54 | 1 to 10 µM | COc1ccc2cc(-c3n[nH]c4ccc(C(N)=O)cc34)ccc2c1

Row | IC50 | SMILES
55 | 0.5 to 10 µM | CC(C)CC(=O)Nc1cccc(-c2n[nH]c3ccc(-c4nc[nH]n4)cc23)c1
56 | 0.5 to 10 µM | CN(C)Cc1n[nH]c(-c2ccc3[nH]nc(-c4cccc(C(=O)NC5Cc6ccccc6C5)c4)c3c2)n1
57 | 0.5 to 10 µM | O=C(NC1CCCCC1)c1cccc(-c2n[nH]c3ccc(-c4nc[nH]n4)cc23)c1
58 | 1 to 10 µM | NC(=O)c1ccc2[nH]nc(-c3cccc(NC(=O)Cc4ccc(F)cc4Cl)c3)c2c1
59 | 0.5 to 10 µM | CC(C)C(=O)Nc1cccc(-c2n[nH]c3ccc(-c4nc[nH]n4)cc23)c1
60 | 1 to 10 µM | NC(=O)c1ccc2[nH]nc(-c3ccc4c(c3)CCO4)c2c1
61 | 0.5 to 10 µM | O=C(Nc1cccnc1)c1cccc(-c2n[nH]c3ccc(-c4nc[nH]n4)cc23)c1
62 | 0.5 to 10 µM | CN(C)Cc1n[nH]c(-c2ccc3[nH]nc(-c4cccc(C(=O)Nc5ccccc5)c4)c3c2)n1
63 | 1 to 10 µM | NC(=O)c1ccc2[nH]nc(-c3cccc(NC(=O)Cc4ccc(Cl)cc4)c3)c2c1
64 | 0.5 to 10 µM | O=C(NC1CC1)c1cccc(-c2n[nH]c3ccc(-c4nc[nH]n4)cc23)c1
65 | 1 to 10 µM | Cc1ncc(CC(=O)Nc2cccc(-c3n[nH]c4ccc(C(N)=O)cc34)c2)s1
66 | 0.5 to 10 µM | CN(C)Cc1n[nH]c(-c2ccc3[nH]nc(-c4cccc(C(=O)Nc5ccc(F)cc5)c4)c3c2)n1
67 | 0.5 to 10 µM | COCCNC(=O)c1cccc(-c2n[nH]c3ccc(-c4nc[nH]n4)cc23)c1
68 | 1 to 10 µM | c1nc(-c2ccc3[nH]nc(-c4ccc5c(c4)CCO5)c3c2)n[nH]1
69 | 1 to 10 µM | CS(=O)(=O)Nc1ccc(-c2n[nH]c3ccc(-c4nc[nH]n4)cc23)cc1
70 | 1 to 10 µM | O=C(Nc1cccc(-c2n[nH]c3ccc(-c4nc[nH]n4)cc23)c1)c1ccc(Cl)cc1
71 | 0.5 to 10 µM | O=C(NC1CCN(Cc2ccccc2)C1)c1cccc(-c2n[nH]c3ccc(-c4nc[nH]n4)cc23)c1 (stereo not given)
72 | 1 to 10 µM | NC(=O)c1ccc2[nH]nc(-c3cccc(NC(=O)CCc4ccccc4)c3)c2c1
73 | 1 to 10 µM | NC(=O)c1ccc2[nH]nc(-c3cccc(NC(=O)Cc4ccsc4)c3)c2c1
74 | 1 to 10 µM | NC(=O)c1ccc2[nH]nc(-c3cccc(NC(=O)c4cccs4)c3)c2c1
75 | 0.5 to 10 µM | NC(=O)c1ccc2[nH]nc(-c3cccc(NC(=O)C4CCOC4)c3)c2c1 (stereo not given)
76 | 0.5 to 10 µM | CC(C)NC(=O)c1cccc(-c2n[nH]c3ccc(-c4nc[nH]n4)cc23)c1
77 | 0.5 to 10 µM | CC(O)Cc1nnc(-c2ccc3[nH]nc(-c4ccc(F)cc4)c3c2)[nH]1 (stereo in doubt; form 1)
78 | 1 to 10 µM | CC(O)Cc1nnc(-c2ccc3[nH]nc(-c4ccc(F)cc4)c3c2)[nH]1 (stereo in doubt; form 2)
79 | 1 to 10 µM | c1cc(OCCN2CCCCC2)cc(-c2n[nH]c3ccc(-c4nc[nH]n4)cc23)c1 [CC-401]

Row | SMILES | IC50
80 | CN(C)Cc1n[nH]c(-c2ccc3[nH]nc(-c4cccc(C(=O)NCCN5CCCCC5)c4)c3c2)n1 | 0.5 to 10 µM
81 | CN(C)Cc1nc(-c2ccc3[nH]nc(-c4ccc5c(c4)OCO5)c3c2)n[nH]1 | 0.5 to 10 µM
82 | COc1ccc(-c2n[nH]c3ccc(-c4n[nH]c(CN(C)C)n4)cc23)cc1 | 0.5 to 10 µM
83 | CN(C)Cc1n[nH]c(-c2ccc3[nH]nc(-c4cc5ccccc5o4)c3c2)n1 | 1 to 10 µM
84 | NC(=O)c1ccc2[nH]nc(-c3cccc(C(=O)NCCN4CCCCC4)c3)c2c1 | 1 to 10 µM
85 | O=C(NCCN1CCCCC1)c1cccc(-c2n[nH]c3ccc(-c4nc[nH]n4)cc23)c1 | 0.5 to 10 µM
